{"source": "patent US7081538B1", "about": "“Substituted isoxazolines and their use as antibacterial agents” (priority 1999, dated 2006)", "type_in_all_cases": "cell-based", "key": {"[1]": {"system": "Coagulase Negative Staphylococci MS (methicillin sensitive)", "test": "MIC by agar-dilution, Coagulase Negative Staphylococci MS", "details": "inoculum 10^4 CFU/spot, 37° C., 24 hours", "experimental": "(§1) The following results were obtained on a standard in-vitro test system. The activity is described in terms of the minimum inhibitory concentration (MIC) determined by the agar-dilution technique with an inoculum size of 10^4 CFU/spot. Typically, compounds are active in the range 0.01 to 256 μg/ml.\n(§2) Staphylococci were tested on agar, using an inoculum of 10^4 CFU/spot and an incubation temperature of 37° C. for 24 hours—standard test conditions for the expression of methicillin resistance."}, "[2]": {"system": "Coagulase Negative Staphylococci MR (methicillin resistant)", "test": "MIC by agar-dilution, Coagulase Negative Staphylococci MR", "details": "inoculum 10^4 CFU/spot, 37° C., 24 hours", "experimental": "as §1, §2"}, "[3]": {"system": "Enterococcus faecalis", "test": "MIC by agar-dilution, Enterococcus faecalis", "details": "agar with 5% defibrinated horse blood, 10^4 CFU/spot, 37° C., 5% carbon dioxide, 48 hours", "experimental": "as §1\n(§3) Streptococci and enterococci were tested on agar supplemented with 5% defibrinated horse blood, an inoculum of 10^4 CFU/spot and an incubation temperature of 37° C. in an atmosphere of 5% carbon dioxide for 48 hours—blood is required for the growth of some of the test organisms."}, "[4]": {"system": "Streptococcus pyogenes C203", "test": "MIC by agar-dilution, Streptococcus pyogenes C203", "details": "agar with 5% defibrinated horse blood, 10^4 CFU/spot, 37° C., 5% carbon dioxide, 48 hours", "experimental": "as §1, §3"}, "[5]": {"system": "Staphylococcus aureus Novb. Res (Novobiocin resistant)", "test": "MIC by agar-dilution, Staphylococcus aureus Novb. Res", "details": "inoculum 10^4 CFU/spot, 37° C., 24 hours", "experimental": "as §1, §2"}, "[6]": {"system": "Bacillus subtilis", "test": "MIC by agar-dilution, Bacillus subtilis", "details": "inoculum 10^4 CFU/spot", "experimental": "as §1"}, "[7]": {"system": "Staphylococcus aureus Oxford", "test": "MIC by agar-dilution, Staphylococcus aureus Oxford", "details": "inoculum 10^4 CFU/spot, 37° C., 24 hours", "experimental": "as §1, §2"}, "[8]": {"system": "Staphylococcus aureus MRQR (methicillin resistant quinolone resistant)", "test": "MIC by agar-dilution, Staphylococcus aureus MRQR", "details": "inoculum 10^4 CFU/spot, 37° C., 24 hours", "experimental": "as §1, §2"}}}
{"smiles": "O=C(CO)N1CC=C(c2ccc(C3=NOC(CNc4ccon4)C3)cc2)CC1", "note": "(racemic) [Example 1, (5RS)-3-(4-(1-Hydroxyacetyl-1,2,5,6-tetrahydropyrid-4-yl)phenyl)-5-(3-isoxazolylaminomethyl)-4,5-dihydro-isoxazole]", "values": [{"measurement": "MIC", "setting": "[1]", "result": 1, "unit": "mg/L"}, {"measurement": "MIC", "setting": "[2]", "result": 2, "unit": "mg/L"}, {"measurement": "MIC", "setting": "[3]", "result": 8, "unit": "mg/L"}, {"measurement": "MIC", "setting": "[4]", "result": 8, "unit": "mg/L"}, {"measurement": "MIC", "setting": "[5]", "result": 4, "unit": "mg/L"}, {"measurement": "MIC", "setting": "[6]", "result": 1, "unit": "mg/L"}, {"measurement": "MIC", "setting": "[7]", "result": 2, "unit": "mg/L"}, {"measurement": "MIC", "setting": "[8]", "result": 4, "unit": "mg/L"}]}
